Assay results: patent US20180360917A1, “SINCALIDE FORMULATIONS AND METHODS OF USE” (Apicore LLC, priority 2017, published 2018)

How the values were obtained:
[1] = Oxidation of Sincalide methionine residues by trace metals with and without EDTA; format: physicochemical
Source text: Excipient impurities and/or stopper extractables can introduce trace metals into pharmaceutical formulations. Embodiments of the Sincalide formulations disclosed herein contain stabilizerichelator to inhibit the oxidation of the two methionine residues present in Sincalide (Met 3 and Met 6). Preferred chelators include edetic acid (EDTA) and derivatives thereof, including salts. […] In particular, copper and manganese, in the absence of EDTA, have the greatest oxidative effect on the methionine residues of Sincalide.

[2] = system: gallbladder; settings: typical, patient pretreated before hepatobiliary imaging; cited from earlier work
[3] = Stability of Sincalide in 35 mM phosphate buffer over pH 3.0-9.1 (recovery by RP-HPLC); format: physicochemical
Method: Experiments were conducted to determine the effect of pH on the chemical stability of Sincalide. Chemical instability, or degradation, may be caused by, for example, oxidation, reduction, de-amidation, hydrolysis, imide formation, racemization, isomerization, and/or β-elimination. To examine the effect of pH on Sincalide in phosphate buffer solution, solutions of Sincalide (˜1.7, μg/mL) were prepared in 35 mM phosphate buffer and pH-adjusted with either dilute HCl or NaOH for final pH values ranging from 3.0-9.1. Using reverse-phase HPLC (RP-HPLC) with gradient elution and UV detection at 215 nm, Sincalide stability in solution was assessed by measuring the recovery of Sincalide at 0, 6, and 24 hours after pH adjustment.
A 24-hour study on the stability of Sincalide in phosphate buffer over the pH range of 3.0-9.1 was conducted. By measure of the percentage recovery, Sincalide was stable in 35 mM phosphate buffer solution at pH values ranging from 5.0-9.1 over a 24-hour period. At pH values <5.0, Sincalide degradation was evident even at the initial time point.

formation of Sincalide Met 3 and Met 6 mono sulfoxides ([1]; presence of EDTA): inhibitory effect | amounts of the degradants Sincalide Met 3 and Met 6 mono sulfoxides ([1]; presence of certain metals, absence of EDTA, copper and manganese greatest oxidative effect): increase | pH values at which Sincalide was stable, by percentage recovery ([3]; 35 mM phosphate buffer solution, over a 24-hour period, RP-HPLC UV 215 nm): 5.0-9.1 | pH values at which Sincalide degradation was evident ([3]; 35 mM phosphate buffer, even at the initial time point): < 5.0
Structure (SMILES): CSCC[C@H](NC(=O)[C@H](Cc1ccc(OS(=O)(=O)O)cc1)NC(=O)[C@@H](N)CC(=O)O)C(=O)NCC(=O)N[C@@H](Cc1c[nH]c2ccccc12)C(=O)N[C@@H](CCSC)C(=O)N[C@@H](CC(=O)O)C(=O)N[C@@H](Cc1ccccc1)C(N)=O [Sincalide, 1-De(5-oxo-L-glutamine-5-L-proline)-2-de-L-me-thioninecaerulein]
time to gallbladder contraction after injection [2]: ≤ 15 min
